Our source for the relative viability values is the supplement of paper PMC10307832.

What all share (experiment): relative viability (nuclei count vs DMSO), 5 days (fraction); higher = more cells survive
Compound in test [1]: CC1=CC(=CC=C1)NC2=NC(=CS2)C3=CC=NC=C3 + COc1cc2c(Oc3ccc(NC(=O)C4(C(=O)Nc5ccc(F)cc5)CC4)cc3F)ccnc2cc1OCCCN1CCOCC1 [Foretinib] (partner 0.25 µM)
In a few lines: (§1)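 One day after seeding in 1536-well plates, lung cancer cell lines were dosed by pin tool. Dosing was either single-drug or a fixed anchor-drug dose plus five library-drug doses (not always all listed) in √10 steps. After 5 days, nuclei were stained in one fix-and-stain step and counted on 4× images, and relative viability is the nuclei count of treated wells over that of vehicle wells, given as the median of duplicate plates.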

Compound in test [2]: Cc1ccc(NC(=O)c2ccc(CN3CCN(C)CC3)cc2)cc1Nc1nc(-c2cccnc2)cs1 [Masitinib] + Cc1cc(Nc2cc(N3CCN(C)CC3)nc(Sc3ccc(NC(=O)C4CC4)cc3)n2)n[nH]1 [Tozasertib] (partner 0.1 µM)
A digest of the protocol: as §1

Compound in test [3]: Cc1ccc(NC(=O)c2ccc(CN3CCN(C)CC3)cc2)cc1Nc1nc(-c2cccnc2)cs1 [Masitinib] + O=C(c1cc(Cc2n[nH]c(=O)c3ccccc23)ccc1F)N1CCN(C(=O)C2CC2)CC1 [Olaparib] (partner 8 µM)
A digest of the protocol: as §1

Compound in test [4]: CC1=CC(=CC=C1)NC2=NC(=CS2)C3=CC=NC=C3 + CS(=O)(=O)N1CCN(Cc2cc3nc(-c4cccc5[nH]ncc45)nc(N4CCOCC4)c3s2)CC1 [Pictilisib] (partner 1 µM)
In a few lines: as §1

NCI-H2085: the relative viability amounted to 0.903 in test [1] (first compound 0.08 µM); 0.994 in test [1] (first compound 0.253 µM); 0.989 in test [1] (first compound 0.8 µM); 0.95 in test [1] (first compound 2.53 µM); 0.759 in test [1] (first compound 8 µM); 0.691 in test [2] (first compound 0.01 µM). Moreover, the relative viability in test [2] (first compound 0.03162 µM) is 0.779; in test [2] (first compound 0.1 µM), 0.865; in test [2] (first compound 0.3162 µM), 0.479; in test [2] (first compound 1 µM), 0.663; in test [3] (first compound 0.01 µM) it was 0.729; in test [3] (first compound 0.03162 µM), 0.805. Further, the relative viability in test [3] (first compound 0.1 µM) was determined as 0.798; in test [3] (first compound 0.3162 µM), 0.815; in test [3] (first compound 1 µM) it was 0.728; in test [4] (first compound 0.08 µM) it was 0.5; in test [4] (first compound 0.253 µM) it was 0.434; in test [4] (first compound 0.8 µM) it was 0.453. The relative viability in test [4] (first compound 2.53 µM) is 0.426; in test [4] (first compound 8 µM) it was 0.447.
Regarding NCI-H596, the relative viability in test [1] (first compound 0.08 µM) turned out to be 0.804; in test [1] (first compound 0.253 µM), 0.999; in test [1] (first compound 0.8 µM) it was 0.728; in test [1] (first compound 2.53 µM) it was 0.805; in test [1] (first compound 8 µM) it was 0.838; in test [2] (first compound 0.01 µM), 0.972. Also, the relative viability amounted to 0.73 in test [2] (first compound 0.03162 µM); 1.07 in test [2] (first compound 0.1 µM); 1.08 in test [2] (first compound 0.3162 µM); 0.716 in test [2] (first compound 1 µM); 0.593 in test [3] (first compound 0.01 µM); 0.657 in test [3] (first compound 0.03162 µM). Besides, the relative viability came out at 0.634 in test [3] (first compound 0.1 µM); 0.581 in test [3] (first compound 0.3162 µM); 0.633 in test [3] (first compound 1 µM); 0.347 in test [4] (first compound 0.08 µM); 0.378 in test [4] (first compound 0.253 µM); 0.34 in test [4] (first compound 0.8 µM). The relative viability in test [4] (first compound 2.53 µM) amounted to 0.402; in test [4] (first compound 8 µM), 0.264.
Turning to SK-LU-1, the relative viability in test [1] (first compound 0.08 µM) turned out to be 0.767; in test [1] (first compound 0.253 µM) it was 0.886; in test [1] (first compound 2.53 µM), 0.781; in test [1] (first compound 8 µM), 0.76; in test [2] (first compound 0.01 µM), 0.349; in test [2] (first compound 0.03162 µM), 0.299. Besides, the relative viability came out at 0.319 in test [2] (first compound 0.1 µM); 0.35 in test [2] (first compound 0.3162 µM); 0.292 in test [2] (first compound 1 µM); 0.419 in test [3] (first compound 0.01 µM); 0.486 in test [3] (first compound 0.03162 µM); 0.436 in test [3] (first compound 0.1 µM). In addition, the relative viability in test [3] (first compound 0.3162 µM) was 0.524; in test [3] (first compound 1 µM), 0.497; in test [4] (first compound 0.08 µM), 0.527; in test [4] (first compound 0.253 µM), 0.575; in test [4] (first compound 2.53 µM), 0.586; in test [4] (first compound 8 µM), 0.626.
Take A-427: the relative viability in test [1] (first compound 0.08 µM) stood at 1.02; in test [1] (first compound 0.253 µM) it was 1.08; in test [1] (first compound 0.8 µM) it was 1.14; in test [1] (first compound 2.53 µM), 0.924; in test [1] (first compound 8 µM) it was 0.707; in test [2] (first compound 0.03162 µM) it was 0.214. Also, the relative viability was determined as 0.171 in test [2] (first compound 0.3162 µM); 0.227 in test [2] (first compound 1 µM); 0.621 in test [3] (first compound 0.01 µM); 0.711 in test [3] (first compound 0.03162 µM); 0.654 in test [3] (first compound 0.1 µM); 0.489 in test [3] (first compound 0.3162 µM). The relative viability in test [3] (first compound 1 µM) was determined as 0.663; in test [4] (first compound 0.08 µM), 0.633; in test [4] (first compound 0.253 µM), 0.71; in test [4] (first compound 0.8 µM), 0.692; in test [4] (first compound 8 µM) it was 0.655.
On to NCI-H460, for which the relative viability turned out to be 0.915 in test [1] (first compound 0.08 µM); 0.894 in test [1] (first compound 0.253 µM); 0.948 in test [1] (first compound 0.8 µM); 0.924 in test [1] (first compound 2.53 µM); 0.82 in test [1] (first compound 8 µM); 0.288 in test [2] (first compound 0.01 µM). Also, the relative viability in test [2] (first compound 0.03162 µM) was 0.4; in test [2] (first compound 0.1 µM) it was 0.313; in test [2] (first compound 0.3162 µM), 0.0644; in test [2] (first compound 1 µM), 0.168; in test [3] (first compound 0.01 µM), 0.38; in test [3] (first compound 0.03162 µM), 0.381. Moreover, the relative viability in test [3] (first compound 0.1 µM) was determined as 0.436; in test [3] (first compound 0.3162 µM) it was 0.463; in test [3] (first compound 1 µM), 0.415; in test [4] (first compound 0.08 µM), 0.311; in test [4] (first compound 0.253 µM) it was 0.257; in test [4] (first compound 0.8 µM), 0.337. The relative viability came to 0.354 in test [4] (first compound 2.53 µM) and 0.336 in test [4] (first compound 8 µM).
NCI-H1734: the relative viability in test [1] (first compound 0.08 µM) turned out to be 0.821; in test [1] (first compound 0.253 µM), 0.84; in test [1] (first compound 0.8 µM), 0.816; in test [1] (first compound 2.53 µM), 0.873; in test [1] (first compound 8 µM), 0.794; in test [2] (first compound 0.01 µM), 0.285. Besides, the relative viability in test [2] (first compound 0.03162 µM) is 0.27; in test [2] (first compound 0.1 µM) it was 0.318; in test [2] (first compound 0.3162 µM), 0.276; in test [2] (first compound 1 µM) it was 0.272; in test [3] (first compound 0.01 µM), 0.557; in test [3] (first compound 0.03162 µM), 0.564. Moreover, the relative viability in test [3] (first compound 0.1 µM) is 0.623; in test [3] (first compound 0.3162 µM), 0.618; in test [3] (first compound 1 µM) it was 0.6; in test [4] (first compound 0.08 µM), 0.479; in test [4] (first compound 0.253 µM) it was 0.499; in test [4] (first compound 0.8 µM), 0.494. The relative viability in test [4] (first compound 2.53 µM) amounted to 0.588; in test [4] (first compound 8 µM), 0.43.
Consider NCI-H1915, for which the relative viability stood at 1.05 in test [1] (first compound 0.08 µM); 1.1 in test [1] (first compound 0.253 µM); 1.06 in test [1] (first compound 0.8 µM); 1.07 in test [1] (first compound 2.53 µM); 0.977 in test [1] (first compound 8 µM); 0.453 in test [2] (first compound 0.03162 µM). Besides, the relative viability in test [2] (first compound 0.3162 µM) came out at 0.44; in test [2] (first compound 1 µM), 0.387; in test [3] (first compound 0.03162 µM) it was 0.289; in test [3] (first compound 0.3162 µM), 0.254; in test [3] (first compound 1 µM), 0.238; in test [4] (first compound 0.08 µM), 0.834. Besides, the relative viability was 0.853 in test [4] (first compound 0.253 µM), 0.888 in test [4] (first compound 0.8 µM), 0.759 in test [4] (first compound 2.53 µM) and 0.92 in test [4] (first compound 8 µM).
